Measured values: patent publication US10179120B2, “Dosage regimen of ferric trimaltol” (Iron Therapeutics Holdings AG, priority 2014, dated 2019)

Assays:
Format in all cases: in vivo, human
[1] = Example 2: open-label, randomised, single and repeat dose Phase I pharmacokinetic study in subjects with iron deficiency; settings: for reticulocyte haemoglobin, Mean change: baseline to day 8; for Transferrin saturation above baseline / mean serum total iron concentration above baseline: 6 h postdose
Description: These studies were primarily pharmacokinetic and conducted in subjects with iron deficiency having active inflammatory disease or acute chronic inflammation. An open-label, randomised, single and repeat dose parallel group Phase I pharmacokinetic study was carried out to evaluate the effect of single and repeated twice daily (bid) oral doses of ST10 at 30 mg, 60 mg and 90 mg for 8 days.
24 subjects with iron deficiency (with or without anaemia) were randomly allocated to one of the three ST10 dose groups as follows:
Group 1: 9 subjects received ST10, 30 mg twice daily for 7 days (days 1-7) plus a final 30 mg dose on the morning of day 8.
Group 2: 8 subjects received ST10, 60 mg twice daily for 7 days (days 1-7) plus a final 60 mg dose on the morning of day 8.
Group 3: 7 subjects received ST10, 90 mg twice daily for 7 days (days 1-7) plus a final 90 mg dose on the morning of day 8.
On day 1, following fasting for at least 1.5-2 hours beforehand, ST10 was administered (30 mg, 60 mg or 90 mg) and blood samples collected over the following 6 h for analysis. 60 mg was administered as two 30 mg capsules and 90 mg was administered as three 30 mg capsules, both as a single dose. Subjects continued dosing with ST10 on the evening of day 1 then every morning and evening for the next 6 days (Days 2 to 7).
On day 8 following fasting for at least 1.5-2 hours beforehand the last dosing of ST10 was administered (30 mg, 60 mg or 90 mg) and blood samples collected over the following 6 h for analysis.
On Days 1 and 8 blood samples were collected predose (0 h=time of ST10 dose) and at 5 minutes (for NTBI only), 15 minutes, 30 minutes, 45 minutes, and 1, 1.5, 2, 3, 4 and 6 h postdose.
Serum concentrations of transferrin, total iron binding capacity (TIBC), ferritin and soluble transferrin receptor; and reticulocyte haemoglobin concentrations (CHr) in whole blood were measured by central laboratories using appropriately validated methods.
These studies used transferrin saturation and total serum iron as measurements of iron uptake from the gut into the transport mechanisms. In addition serum ferritin was used as a measure of iron storage status at the end of the dosing period; all of these measurements are standard and well recognised.
One subject in the 60 mg dose group prematurely withdrew from the study on Day 7, so full profiles of all serum iron parameters were available in the 30 mg dose group for 9 subjects (days 1 and 8), in the 60 mg dose group 8 subjects on day 1 and for 7 subjects on day 8, and in the 90 mg dose group for 7 subjects (days 1 and 8).

[2] = Example 1: 12-week placebo-controlled study of ST10 30 mg twice daily in IDA patients with IBD
Description: 128 patients suffering from IDA were randomised. Of this group […] were suffering from Crohn's disease and 53 were suffering from ulcerative colitis. All had mild to moderate disease activity and anaemia associated with IBD which was measured according to low haemoglobin levels ([…] for women and 13 g/dL (male) and were intolerant of ferrous iron, or it could not be used. There were no restrictions on the use of gastric pH modifying agents or medications.
60 patients were treated with ST10 at a 30 mg dose twice daily, before breakfast and prior to sleep on an empty stomach for a period of 12 weeks.
60 patients received a matched placebo capsule and were treated in the same way for the same period. Withdrawal from the study before 12 weeks occurred in seven ST10 subjects and nine placebo subjects. 87% of subjects completed 12 weeks of treatment.

[3] = Example 1: treatment with 30 mg ST10 twice daily for up to 64 weeks; settings: 30 mg twice daily for up to 64 weeks, 109 subjects
Description: 109 of the 128 subjects were treated with 30 mg ST10 twice daily for up to 64 weeks.

Transferrin saturation above baseline ([1]; Day 1, 30 mg dose group): 17.0% | mean serum total iron concentration above baseline ([1]; Day 1, 30 mg dose group): 11.8 µmol/L | Transferrin saturation above baseline ([1]; Day 1, 60 mg dose group): 47.3% | mean serum total iron concentration above baseline ([1]; Day 1, 60 mg dose group): 33.0 µmol/L | Transferrin saturation above baseline ([1]; Day 1, 90 mg dose group): 33.3% | mean serum total iron concentration above baseline ([1]; Day 1, 90 mg dose group): 24.3 µmol/L | Transferrin saturation, average maximum value ([1]; Day 1, 30 mg dose group): 45.6% | serum total iron concentration, average maximum ([1]; Day 1, 30 mg dose group): 32.3 µmol/L | Transferrin saturation, average maximum value ([1]; Day 1, 60 mg dose group): 69.8% | serum total iron concentration, average maximum ([1]; Day 1, 60 mg dose group): 49.1 µmol/L | Transferrin saturation, average maximum value ([1]; Day 1, 90 mg dose group): 67.3% | serum total iron concentration, average maximum ([1]; Day 1, 90 mg dose group): 48.7 µmol/L | blackened stools ([2]; patients in the study of Example 1): did not report blackened stools
Substance: ferric trimaltol [ST10]
reticulocyte haemoglobin, Baseline ([1]; 30 mg bid): 33.6 | reticulocyte haemoglobin, Mean change ([1]; 30 mg bid): 0.9 | reticulocyte haemoglobin, Day 8 ([1]; 30 mg bid): 34.6 | reticulocyte haemoglobin, Baseline ([1]; 60 mg bid): 31.0 | reticulocyte haemoglobin, Mean change ([1]; 60 mg bid): 3.3 | reticulocyte haemoglobin, Day 8 ([1]; 60 mg bid): 34.1 | reticulocyte haemoglobin, Baseline ([1]; 90 mg bid): 30.8 | reticulocyte haemoglobin, Mean change ([1]; 90 mg bid): 3.0 | reticulocyte haemoglobin, Day 8 ([1]; 90 mg bid): 33.9 | Mean serum ferritin ([1]; day 1, 30 mg dose group): around 15 μg/L | Mean serum ferritin ([1]; day 1, 60 mg dose group): ~10 µg/L | Mean serum ferritin ([1]; day 1, 90 mg dose group): ~13 µg/L | Mean serum ferritin ([1]; day 8, 30 mg dose group): ~22 µg/L | Mean serum ferritin ([1]; day 8, 60 mg dose group): ~22 µg/L | Mean serum ferritin ([1]; day 8, 90 mg dose group): ~32 µg/L | tolerability ([1]; doses of 30 mg and above): well tolerated | improvement of haemoglobin levels ([2]; 30 mg twice daily, 8 weeks, p<0.0001): 1.75 g/dL | subjects with adverse events (mainly gastrointestinal) ([2]; 30 mg twice daily, 12 weeks): 38% | subjects with normalised haemoglobin levels ([2]; 30 mg twice daily, by week 12): More than 65% | tolerability ([2]; 30 mg twice daily, duration of the treatment): well tolerated | Mean Hb increase from baseline to Week 12 ([2]; 30 mg twice daily, empty stomach, 12 weeks): 2.26 g/dL | improvement of haemoglobin levels ([2]; 30 mg twice daily, week 4, p<0.0001): 1.05 g/dL | mean Hb at Week 12 ([2]; 30 mg twice daily, week 12): 13.20 g/dL | mean improvement in Hb, change from baseline compared to placebo ([2]; 30 mg twice daily, week 12, p<0.0001): 2.25 g/dL | mean Hb at baseline ([2]; ST10-treated subjects, baseline): 11.10 g/dL | subjects with adverse reactions [3]: 23%
